Data on 44 molecules can be found in patent US20230127046A1, “G9a INHIBITOR” (RIKEN, priority 2019, published 2023).

Structures are written as SMILES. Like-named read-outs stand apart in the source and are kept apart here.

Usually IC50 stands for the concentration at which inhibition is half-maximal.

The target in the assay is T1, recombinant human G9a protein (Homo sapiens, UniProt Q96KQ7).
T1 construct: purchased BPS Bioscience Inc. #51001
T1 sequence (Q96KQ7 785-1210 limits assumed): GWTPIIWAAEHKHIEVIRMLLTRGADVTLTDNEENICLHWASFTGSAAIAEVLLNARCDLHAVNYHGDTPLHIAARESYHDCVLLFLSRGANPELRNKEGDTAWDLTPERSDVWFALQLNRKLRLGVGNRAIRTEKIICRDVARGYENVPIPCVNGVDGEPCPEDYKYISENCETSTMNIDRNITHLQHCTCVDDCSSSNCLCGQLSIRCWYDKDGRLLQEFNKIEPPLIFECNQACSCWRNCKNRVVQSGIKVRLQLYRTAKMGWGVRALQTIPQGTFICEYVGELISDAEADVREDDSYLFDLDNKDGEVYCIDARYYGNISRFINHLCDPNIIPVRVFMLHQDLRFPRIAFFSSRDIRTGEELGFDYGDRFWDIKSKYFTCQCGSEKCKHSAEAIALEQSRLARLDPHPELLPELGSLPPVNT
Kind of assay: G9a inhibitory activity test (ALPHA). The format is biochemical. Here is the method:
The G9a inhibitory activity of each compound was evaluated by measuring the enzymatic activity of G9a by amplified luminescence proximity homogeneous assay (ALPHA). First, 7.5 μL of a dilution of recombinant human G9a protein (BPS Bioscience Inc., #51001) diluted to 0.05 to 0.1 nM with a Tris buffer solution (50 mM Tris-HCl [pH 9.0], 50 mM NaCl, 0.01% Tween-20, 1 mM DTT), and 0.5 μL of the test compound were added to each well of a 384-well microplate (AlphaPlate-384 Shallow Well, PerkinElmer, Inc., #6008359), mixed by vortex, and incubated at room temperature for 10 minutes. 500 nM biotinylated histone H3 peptide (1-21) (AnaSpec Inc., #61702) and 150 μM SAM (Sigma-Aldrich Co. LLC, #A7007) were mixed at 1:1 in advance, and 2 μL of the mixture was added to each well, mixed by vortex, and then incubated at room temperature for 1 hour. AlphaLISA anti-H3K9me2 acceptor beads (PerkinElmer, Inc., #AL117C) and AlphaScreen streptavidin donor beads (PerkinElmer, Inc., #6760002B) were each diluted with an epigenetic buffer (PerkinElmer, Inc., AlphaLISA Epigenetics Buffer Kit #AL008C) to a final concentration of […] after addition. These dilutions were added to the reaction solution in the dark and incubated at room temperature for 1 hour in the dark. Then, measurement was performed using the EnSpire Alpha plate reader (PerkinElmer, Inc., Waltham, Mass., USA). The G9a inhibitory activity of the test compound was calculated as a compound concentration necessary for suppressing G9a enzymatic activity by 50% (IC50 value), by determining the percent inhibition of the compound when the value of a control without the addition of the compound was defined as 0% and the value of a control without the addition of the enzyme was defined as 100%.

Setting [1] is: biotinylated histone H3 peptide (1-21), SAM, read-out: Inhibitory activity (G9a IC50 value).
[2] abbreviates: read-out: Inhibitory activity (G9a IC50).

Consider `CCCCC(NC(=O)c1[nH]c2c(c1C)C(=O)CC(C)(C)C2)C(=O)Nc1cccc(CN(CC)CC)c1` (centres unmarked) [Example 1-108], for which, under setting [1], the IC50 is below 50 nM.

On to `CCCC[C@@H](NC(=O)c1[nH]c2c(c1C)C(=O)CC(C)(C)C2)C(=O)N[C@H](C)c1ccccc1` [Example 2-4], for which the IC50 under setting [2] is at least 200 nM. `Cc1c(C(=O)NC(CCC2CC2)C(=O)Nc2cccc(CN(C)C)c2)[nH]c2c1C(=O)CC(C)(C)C2` (centres unmarked) [Example 1-137]: the IC50 under setting [2] is below 50 nM.

With `Cc1c(C(=O)NC(CCC2CC2)C(=O)Nc2ccc(OC3CCN(C)CC3)cc2)[nH]c2c1C(=O)CC(C)(C)C2` (centres unmarked) [Example 1-85], under setting [1], the IC50 is below 50 nM. As to `CCc1cc(Br)ncc1NC(=O)C(CCC1CC1)NC(=O)c1[nH]c2c(c1C)C(=O)CC(C)(C)C2` (centres unmarked) [Example 6-15], the IC50 under setting [2] was below 50 nM. For `CCCCC(NC(=O)c1[nH]c2c(c1C)C(=O)CC(C)(C)C2)C(=O)Nc1cc(NC(C)=O)ccc1OC` (centres unmarked) [Example 1-114], the IC50 under setting [2] is at least 200 nM. For the molecule `Cc1c(C(=O)NC(CCC2CC2)c2nc3cc(CO)ccc3n2C)[nH]c2c1C(=O)CC(C)(C)C2` (centres unmarked) [Example 33, N-[3-cyclopropyl-1-[5-(hydroxymethyl)-1-methylbenzoimidazol-2-yl]propyl]-3,6,6-trimethyl-4-oxo-5,7-dihydro-1H-indole-2-carboxamide], the concentration for half-maximal inhibition (IC50) under setting [2] is at least 200 nM. As to `CCCCC(NC(=O)c1[nH]c2c(c1C)C(=O)CC(C)(C)C2)C(=O)NCc1ccc2ccccc2c1` (centres unmarked) [Example 1-50], the IC50 under setting [1] is at least 200 nM. Turning to `CCc1cc(C)ncc1NC(=O)C(CCC1CC1)NC(=O)c1[nH]c2c(c1C)C(=O)CC(C)(C)C2` (centres unmarked) [Example 6-1, N-[4-cyclopropyl-1-[(4-ethyl-6-methylpyridin-3-yl)amino]-1-oxobutan-2-yl]-3,6,6-trimethyl-4-oxo-5,7-dihydro-1H-indole-2-carboxamide], under setting [2], the IC50 was below 50 nM. Take `CCCCC(NC(=O)c1[nH]c2c(c1C)C(=O)CC(C)(C)C2)C(=O)Nc1ccccc1CC` (centres unmarked) [Example 1-23]: the IC50 under setting [1] was in the range of 50 to 200 nM. In the case of `CCCCC(NC(=O)c1[nH]c2c(c1C)C(=O)CC(C)(C)C2)C(=O)Nc1cccc(CN(C)C)c1` (centres unmarked) [Example 18-1, N-[1-[3-[(dimethylamino)methyl]anilino]-1-oxohexan-2-yl]-3,6,6-trimethyl-4-oxo-5,7-dihydro-1H-indole-2-carboxamide], the IC50 under setting [2] was below 50 nM. `CCCCC(NC(=O)C(c1ccccc1)c1ccccc1)C(=O)Nc1ccc(OC2CCN(C)CC2)nc1` (centres unmarked) [Example 12-1, 2-[(2,2-diphenylacetyl)amino]-N-[6-(1-methylpiperidin-4-yl)oxypyridin-3-yl]hexane amide]: under setting [2], the IC50 was 50 to 200 nM. Turning to `Cc1c(C(=O)NC(CCC2CC2)C(=O)Nc2cccc(C#N)c2)[nH]c2c1C(=O)CC(C)(C)C2` (centres unmarked) [Example 1-62], the IC50 under setting [1] lay in the range of 50 to 200 nM. For the molecule `CCc1ccc(NC(=O)C(CCC2CC2)NC(=O)c2ccc(Nc3ccncc3)cc2)cn1` (centres unmarked) [Example 6-86], the IC50 under setting [2] was below 50 nM. Regarding `CCCCC(NC(=O)c1[nH]c2c(c1C)C(=O)CC(C)(C)C2)C(=O)Nc1ccccc1C(F)F` (centres unmarked) [Example 5-1, N-[1-[2-(difluoromethyl)anilino]-1-oxohexan-2-yl]-3,6,6-trimethyl-4-oxo-5,7-dihydro-1H-indole-2-carboxamide], the IC50 under setting [2] is at least 200 nM. The same measure, in the same setting: the figure for `CCCC[C@H](NC(=O)c1[nH]c2c(c1C)C(=O)CC(C)(C)C2)c1nc2ccc(OCCCN3CCCCC3)cc2[nH]1` [Example 34-2] is 50 to 200 nM.

Take `CCCCC(NC(=O)c1[nH]c2c(c1C)C(=O)CC(C)(C)C2)C(=O)Nc1cccnc1C` (centres unmarked) [Example 1-107]: the IC50 under setting [1] was at least 200 nM. For `CCCCC(NC(=O)c1[nH]c2c(c1C)C(=O)CC(C)(C)C2)C(=O)Nc1ccc2[nH]ccc2c1` (centres unmarked) [Example 1-96], the IC50 under setting [1] was at least 200 nM. Take `Cc1c(C(=O)NC(C(=O)Nc2ccc(OC3CCN(C)CC3)nc2)c2ccc(Cl)cc2)[nH]c2c1C(=O)CC(C)(C)C2` (centres unmarked) [Example 6-29]: the IC50 under setting [2] is at least 200 nM. For the molecule `CCCCC(NC(=O)c1[nH]c2c(c1C)C(=O)CC(C)(C)C2)C(=O)NCc1cccc2ccccc12` (centres unmarked) [Example 1-49], under setting [1], the half-inhibitory concentration (IC50) is at least 200 nM. On to `COc1ccc(NC(=O)C(CCC2CC2)NC(=O)c2ccc(-c3ccncc3)cc2C)cn1` (centres unmarked) [Example 6-50], for which, under setting [2], the IC50 was at least 200 nM. On to `CCCCC(NC(=O)c1[nH]c2c(c1C)C(=O)CC(C)(C)C2)C(=O)N[C@@H]1CCCc2ccccc21` (some centres unmarked) [Example 1-104], for which, under setting [1], the IC50 lay within 50 to 200 nM. Regarding `COc1ccc2c(c1)N(C(=O)C(CCC1CC1)NC(=O)c1[nH]c3c(c1C)C(=O)CC(C)(C)C3)CC2` (centres unmarked) [Example 1-131], the half-inhibitory concentration (IC50) under setting [2] was at least 200 nM. Regarding `CCCCC(NC(=O)c1[nH]c2c(c1C)C(=O)CC(C)(C)C2)C(=O)NCc1ccc(N2CCNCC2)cc1` (centres unmarked) [Example 26-7], the IC50 under setting [2] was below 50 nM.

As to `CSCC[C@H](NC(=O)c1[nH]c2c(c1C)C(=O)CC(C)(C)C2)C(=O)Nc1ccccc1` [Example 6-90], under setting [2], the 50% inhibitory concentration (IC50) was at least 200 nM. The same measure, in the same setting: the figure for `Cc1c(C(=O)NC(CCC2CC2)C(=O)Nc2ccc(C#N)nc2)[nH]c2c1C(=O)CC(C)(C)C2` (centres unmarked) [Example 6-13] is at least 200 nM; for `CCCC[C@H](NC(=O)c1[nH]c2c(c1C)C(=O)CC(C)(C)C2)c1nc2ccc(OCCCN3CCOCC3)cc2[nH]1` [Example 34-3] it is at least 200 nM; for `Cc1c(C(=O)NC(CCC2CC2)C(=O)N2CCc3cc(CN(C)C)ccc32)[nH]c2c1C(=O)CC(C)(C)C2` (centres unmarked) [Example 1-125] it is at least 200 nM. Still for that read-out and setting: the result for `CCCCC(NC(=O)c1[nH]c2c(c1C)C(=O)CC(C)(C)C2)C(=O)Nc1ccc(N2CCNCC2)nc1` (centres unmarked) [Example 26-5] reads 50 to 200 nM; that for `CCCC[C@H](NC(=O)c1[nH]c2c(c1C)C(=O)CC(C)(C)C2)C(=O)N1CCc2c(OC3CCN(C)CC3)cccc21` [Example 6-106], at least 200 nM. As to `CCCC[C@H](NC(=O)c1[nH]c2c(c1C)C(=O)CC(C)(C)C2)C(=O)NCc1ccc(N2CCN(CC(C)C)CC2)cc1` [Example 22-1], the IC50 under setting [2] was at least 200 nM.

With `COc1ccc(NC(=O)C(CCC2CC2)NC(=O)c2ccc(OCCCN(C)C)cc2)cn1` (centres unmarked) [Example 6-72], under setting [2], the IC50 was at least 200 nM. Same read-out and setting: the figure for `CCCCC(NC(=O)c1ccc(N2CCN(C)CC2)cc1C)C(=O)Nc1ccc(OC2CCN(C)CC2)nc1` (centres unmarked) [Example 11-1, 2-methyl-4-(4-methylpiperazin-1-yl)-N-[1-[[6-(1-methylpiperidin-4yl)oxypyridin-3-yl]amino]-1-oxohexan-2-yl]benzamide] is at least 200 nM.

`CCCCC(NC(=O)c1[nH]c2c(c1C)C(=O)CC(C)(C)C2)C(=O)Nc1ccc(CN2CCCC2)cc1` (centres unmarked) [Example 1-98]: under setting [1], the half-maximal inhibitory concentration (IC50) was below 50 nM. Same read-out and setting: the figure for `CCCCC(NC(=O)c1[nH]c2c(c1C)C(=O)CC(C)(C)C2)C(=O)Nc1ccc(F)cc1` (centres unmarked) [Example 1-26] is at least 200 nM. For `Cc1c(C(=O)NC(CCC2CC2)C(=O)N2CCc3cc(OCCN(C)C)ccc3C2)[nH]c2c1C(=O)CC(C)(C)C2` (centres unmarked) [Example 1-140], under setting [2], the IC50 was at least 200 nM. With `Cc1c(C(=O)NC(CCC2CC2)C(=O)Nc2ccc(OC3COC3)nc2)[nH]c2c1C(=O)CC(C)(C)C2` (centres unmarked) [Example 1-71], the IC50 under setting [1] was at least 200 nM. In the case of `Cc1ccncc1NC(=O)C(CCC1CC1)NC(=O)c1[nH]c2c(c1C)C(=O)CC(C)(C)C2` (centres unmarked) [Example 6-4], the IC50 under setting [2] is 50 to 200 nM. Still for that read-out and setting: the figure for `CCCCC(NC(=O)c1[nH]c2c(c1C)C(=O)CC(C)(C)C2)C(=O)NCc1cccc(CN(C)C)n1` (centres unmarked) [Example 4, N-[1-[[6-[(dimethylamino)methyl]pyridine-2yl]methylamino]-1-oxohexan-2-yl]-3,6,6-trimethyl-4-oxo-5,7-dihydro-1H-indole-2-carboxamide] is at least 200 nM; for `CCN(CC)Cc1cccc2c1nc(C(CCC1CC1)NC(=O)c1[nH]c3c(c1C)C(=O)CC(C)(C)C3)n2C` (centres unmarked) [Example 31-4] it is at least 200 nM. For the molecule `CCCCC(NC(=O)c1[nH]c2c(c1C)C(=O)CC(C)(C)C2)C(=O)NCc1ccccc1` (centres unmarked) [Example 1-39], the IC50 under setting [1] is at least 200 nM. Consider `Cc1c(C(=O)NC(CCC2CC2)C(=O)N2CCc3cc(OCCO)ccc32)[nH]c2c1C(=O)CC(C)(C)C2` (centres unmarked) [Example 1-133], for which the IC50 under setting [2] is at least 200 nM. Consider `CCCCC(NC(=O)c1[nH]c2c(c1C)C(=O)CC(C)(C)C2)C(=O)Nc1ccccc1CCC` (centres unmarked) [Example 1-19], for which the IC50 under setting [1] is at least 200 nM. With `Cc1c(C(=O)NC(CCC2CCC2)C(=O)Nc2ccccc2)[nH]c2c1C(=O)CC(C)(C)C2` (centres unmarked) [Example 6-24], the IC50 under setting [2] was at least 200 nM.
